What is called viability is the share of living cells, or the viability signal relative to a control.

The record followed here is article PMC9050923, “6,N^2-Diaryl-1,3,5-triazine-2,4-diamines: synthesis, antiproliferative activity and 3D-QSAR modeling” (RSC Advances, 2020).

Where two headings read alike, the source gives them in different places.

Holding throughout (type): cell-based
For one data set, the system named is MDA-MB231. The experiment in a line: MTT assay, MDA-MB231 breast cancer cells. To be noted: for viability at 10 µM / GI50: Homo sapiens, MDA-MB-231; for viability at 10 µM: read-out: Percentage of cell viability MDA-MB231. As for the experimental part: (§1) The prepared compounds 1–126 were tested on three breast cancer cell lines namely, MDA-MB231, SKBR-3 and MCF-7 using MTT assay. SKBR-3 and MCF-7 cell lines are estrogen and progesterone hormone positive cell lines often used as a model for the hormone therapy.[18] MDA-MB231 is triple negative breast cancer cell line, which is negative to estrogen and progesterone receptors and human epidermal growth factor receptor 2, a perfect model for chemotherapy.[18] Initially, all the prepared compounds 1–126 were tested on these three cancer cell lines at the screening concentration (10 μM) and percentage of cell viability was calculated 72 h after the treatment (Table 1).
(§2) The growth inhibitory effect of the compounds was determined on breast tumor cell line (MDA-MB231, SKBR-3 and MCF-7) at different concentrations with methotrexate and nilotinib as positive controls (Table 2).
(§3) The cytotoxic activity of 6,N^2-diaryl-1,3,5-triazine-2,4-diamines (1–126) was evaluated against three breast carcinoma cell lines (MDA-MB231, SKBR-3, and MCF-7) and normal breast cell line (MCF-10A) by MTT assay.[22] All cells were obtained from the American Type Culture Collection and were grown in 10% fetal bovine serum and 1% pen-strep antibiotic supplemented media (DMEM for MDA-MB231 and SKBR-3, RPMI for MCF-7, and MEGM for MCF-10A). For MTT assay, 20 000 to 75 000 cells per mL (based on the doubling time for each cell line) were seeded in 96 well plates and incubated for 24 h at 37 °C in 5% CO2 incubator. Then, compounds at different concentrations were added followed by the incubation at 37 °C for 72 h. After that, MTT solution (0.5 mg mL^−1) was added and the plates were incubated for another 4 h. The supernatant was then discarded and 100 μL of DMSO was added to each well. The plates were then read by Tecan NanoQuant (model: infinite m200 pro) plate reader and absorbance was measured at 570 nm. GI50 values were calculated using sigmoidal concentration–response curves (see ESI ^†) generated using the GraphPad Prism 7 program. Three independent experiments were carried out and the data were represented as mean of the three experiments.

In the next data set the test system is SKBR-3. The experiment in a line: MTT assay, SKBR-3 breast cancer cells. To be noted: MTT; for viability at 10 µM / GI50: Homo sapiens, SK-BR-3; for viability at 10 µM: read-out: Percentage of cell viability SKBR-3; for GI50: 72 h, mean of three independent experiments ± SEM. The method, then:
as §1, §2, §3
(Formazan colour is commonly taken as a measure of viable cells.)

A further data set deals with MCF-7. Description: MTT assay, MCF-7 breast cancer cells. To be noted: for viability at 10 µM / GI50: Homo sapiens; for viability at 10 µM: MCF7, 10 μM, read-out: Percentage of cell viability MCF-7; for GI50: MCF7, 72 h, mean of three independent experiments ± SEM. The method, then:
as §1, §2, §3

The next data set relates to MCF-10A. Description: MTT assay, MCF-10A normal breast cells. To be noted: Homo sapiens, 72 h, read-out: GI50 (μM) ± SEM MCF-10A. As for the experimental part:
All the compounds, selected for determination of GI50 values against MDA-MB231 cells, were also used for the experiments with MCF-10A normal breast cells.
as §3

[1] abbreviates: 10 μM, 72 h after the treatment, MTT, mean of three independent experiments.
[2] abbreviates: 72 h, MTT, mean of three independent experiments ± SEM, read-out: GI50 (μM) ± SEM MDA-MB231.
[3] abbreviates: −log[GI50], MDA-MB231, read-out: Experimental pGI50 (converted).
Where [4] appears, read: 10 μM, 72 h after the treatment, mean of three independent experiments.
[5] abbreviates: 72 h after the treatment, mean of three independent experiments.

On to `Nc1nc(Nc2ccc(F)cc2)nc(-c2cccc(F)c2)n1` [Compound 14], for which the viability at 10 µM in the data set on MDA-MB231 (setting [1]) came out at 50%; with SKBR-3 (setting [4]), 100%; with MCF-7 (setting [5]) it was 78%. Moreover, the GI50 in the data set with MDA-MB231 (setting [2]) was 9.21 ± 0.38 µM; in the data set on MDA-MB231 (setting [3]), 9.12 µM; in the data set on SKBR-3, greater than 20 µM; in the data set with MCF-7, greater than 20 µM; in the data set on MCF-10A, greater than 25 µM.
Regarding `Nc1nc(Nc2ccc(Br)cc2)nc(-c2cccc(F)c2)n1` [Compound 16], the viability at 10 µM in the data set with MDA-MB231 (setting [1]) came to 43%; in the data set on SKBR-3 (setting [4]), 89%; in the data set on MCF-7 (setting [5]), 80%. Moreover, the GI50 in the data set on MDA-MB231 (setting [2]) is 13.1 ± 0.91 µM; in the data set on MDA-MB231 (setting [3]), 13.2 µM; in the data set with SKBR-3, 17.2 ± 1.07 µM; with MCF-7, greater than 20 µM; with MCF-10A, greater than 25 µM.
Turning to `Cc1ccc(Nc2nc(N)nc(-c3cccc(F)c3)n2)cc1` [Compound 17], the viability at 10 µM is 29% in the data set on MDA-MB231 (setting [1]), 90% in the data set with SKBR-3 (setting [4]) and 71% in the data set on MCF-7 (setting [5]). Moreover, the GI50 was 3.96 ± 0.17 µM in the data set with MDA-MB231 (setting [2]); 3.98 µM in the data set on MDA-MB231 (setting [3]); greater than 20 µM in the data set with SKBR-3; greater than 20 µM in the data set on MCF-7; greater than 25 µM with MCF-10A.
With `COc1ccc(Nc2nc(N)nc(-c3cccc(F)c3)n2)cc1` [Compound 18], the viability at 10 µM was determined as 46% in the data set with MDA-MB231 (setting [1]), 74% with SKBR-3 (setting [4]) and 76% in the data set with MCF-7 (setting [5]). Further, the GI50 with MDA-MB231 (setting [2]) was 6.18 ± 0.43 µM; with MDA-MB231 (setting [3]) it was 6.17 µM; with SKBR-3, 16.6 ± 1.38 µM; in the data set with MCF-7 it was greater than 20 µM; in the data set with MCF-10A, greater than 25 µM.
Turning to `Nc1nc(Nc2ccc(OC(F)(F)F)cc2)nc(-c2cccc(F)c2)n1` [Compound 19], the viability at 10 µM was determined as 50% with MDA-MB231 (setting [1]), 100% in the data set on SKBR-3 (setting [4]) and 76% in the data set on MCF-7 (setting [5]). For the same molecule, the GI50 with MDA-MB231 (setting [2]) was 8.56 ± 0.59 µM; in the data set on MDA-MB231 (setting [3]), 8.51 µM; in the data set on SKBR-3, greater than 20 µM; in the data set with MCF-7, 18.2 ± 1.28 µM; in the data set with MCF-10A, greater than 25 µM.
In the case of `Nc1nc(Nc2ccc(F)cc2)nc(-c2ccc(Cl)cc2)n1` [Compound 36], the viability at 10 µM is 49% in the data set on MDA-MB231 (setting [1]), 98% in the data set on SKBR-3 (setting [4]) and 100% with MCF-7 (setting [5]). Also, the GI50 in the data set with MDA-MB231 (setting [2]) was 14.1 ± 1.52 µM; with MDA-MB231 (setting [3]) it was 14.1 µM; with SKBR-3, 19.4 ± 2.39 µM; in the data set on MCF-7, greater than 20 µM; in the data set on MCF-10A, greater than 25 µM.
For the molecule `COc1ccc(Nc2nc(N)nc(-c3ccc(OC(F)(F)F)cc3)n2)cc1` [Compound 96], the viability at 10 µM in the data set on MDA-MB231 (setting [1]) came to 69%; with SKBR-3 (setting [4]), 88%; in the data set with MCF-7 (setting [5]), 87%.
On to `Nc1nc(Nc2ccc(OC(F)(F)F)cc2)nc(-c2ccc(OC(F)(F)F)cc2)n1` [Compound 97], for which the viability at 10 µM in the data set with MDA-MB231 (setting [1]) worked out at 92%; with SKBR-3 (setting [4]), 80%; in the data set on MCF-7 (setting [5]), 100%.
The like results for `CC(C)c1ccc(Nc2nc(N)nc(-c3ccc(OC(F)(F)F)cc3)n2)cc1` [Compound 98] were, in that order, 100%, 90% and 95%.
On to `CC(C)c1ccc(Nc2nc(N)nc(-c3ccc(N(C)C)cc3)n2)cc1` [Compound 104], for which the viability at 10 µM with MDA-MB231 (setting [1]) turned out to be 70%; in the data set on SKBR-3 (setting [4]), 87%; in the data set with MCF-7 (setting [5]), 100%.
The like results for `CC(C)(C)c1ccc(-c2nc(N)nc(Nc3ccccc3)n2)cc1` [Compound 105] were, in that order, 74%, 100% and 96%.
`CC(C)(C)c1ccc(-c2nc(N)nc(Nc3ccc(F)cc3)n2)cc1` [Compound 106]: the values for the viability at 10 µM with MDA-MB231 (setting [1]), with SKBR-3 (setting [4]) and in the data set on MCF-7 (setting [5]) were 97%, 84% and 88%, respectively.
Turning to `CC(C)(C)c1ccc(-c2nc(N)nc(Nc3ccc(Cl)cc3)n2)cc1` [Compound 107], the viability at 10 µM is 100% in the data set with MDA-MB231 (setting [1]), 92% with SKBR-3 (setting [4]) and 98% with MCF-7 (setting [5]).
The like results for `CC(C)(C)c1ccc(-c2nc(N)nc(Nc3ccc(Br)cc3)n2)cc1` [Compound 108] were, in that order, 59%, 98% and 99%.
The like results for `COc1ccc(Nc2nc(N)nc(-c3ccc(C(C)(C)C)cc3)n2)cc1` [Compound 109] were, in that order, 91%, 85% and 93%.
As to `Nc1nc(Nc2ccc(Br)cc2)nc(-c2ccc(OCc3ccccc3)cc2)n1` [Compound 112], the viability at 10 µM with MDA-MB231 (setting [1]) was found to be 82%; with SKBR-3 (setting [4]) it was 93%; in the data set with MCF-7 (setting [5]), 97%.
The like results for `Cc1ccc(Nc2nc(N)nc(-c3ccc(OCc4ccccc4)cc3)n2)cc1` [Compound 113] were, in that order, 82%, 94% and 100%.
`Nc1nc(Nc2ccc(OC(F)(F)F)cc2)nc(-c2ccc(OCc3ccccc3)cc2)n1` [Compound 114]: the values for the viability at 10 µM in the data set with MDA-MB231 (setting [1]), with SKBR-3 (setting [4]) and in the data set on MCF-7 (setting [5]) were 71%, 87% and 100%, respectively.
The like results for `Nc1nc(Nc2ccccc2)nc(-c2cccs2)n1` [Compound 115] were, in that order, 100%, 87% and 91%.
As to `Nc1nc(Nc2ccccc2F)nc(-c2cccs2)n1` [Compound 116, N ^2-(2-Fluorophenyl)-6-(thiophen-2-yl)-1,3,5-triazine-2,4-diamine], the viability at 10 µM in the data set with MDA-MB231 (setting [1]) turned out to be 98%; in the data set with SKBR-3 (setting [4]), 78%; in the data set on MCF-7 (setting [5]), 90%.
The like results for `Nc1nc(Nc2ccc(F)cc2)nc(-c2cccs2)n1` [Compound 117] were, in that order, 100%, 86% and 92%.
The like results for `Nc1nc(Nc2ccccc2Cl)nc(-c2cccs2)n1` [Compound 118] were, in that order, 100%, 78% and 91%.
On to `Nc1nc(Nc2ccc(Cl)cc2)nc(-c2cccs2)n1` [Compound 119], for which the viability at 10 µM with MDA-MB231 (setting [1]) is 100%; with SKBR-3 (setting [4]), 89%; in the data set with MCF-7 (setting [5]), 98%.
The like results for `COc1ccc(Nc2nc(N)nc(-c3cccs3)n2)cc1` [Compound 123, N ^2-(4-Methoxyphenyl)-6-(thiophen-2-yl)-1,3,5-triazine-2,4-diamine] were, in that order, 93%, 88% and 80%.
The like results for `Nc1nc(Nc2ccc(OC(F)(F)F)cc2)nc(-c2cccs2)n1` [Compound 124] were, in that order, 100%, 86% and 85%.
The like results for `CC(C)c1ccc(Nc2nc(N)nc(-c3cccs3)n2)cc1` [Compound 125] were, in that order, 100%, 86% and 89%.
For `Nc1nc(Nc2cccnc2)nc(-c2cccs2)n1` [Compound 126], the results for the viability at 10 µM with MDA-MB231 (setting [1]), in the data set on SKBR-3 (setting [4]) and with MCF-7 (setting [5]) were 100%, 91% and 86%, respectively.
Regarding “N ^2-(4-Methoxyphenyl)-6-(4-methylphenyl)-1,3,5-triazine-2,4-diamine [Compound 65]”, the “Percentage of cell viability MDA-MB231” value with MDA-MB231 (setting [1]) was 97%. The “Percentage of cell viability SKBR-3” value with SKBR-3 (setting [4]) amounted to 88%. Further, in the data set on MCF-7 (setting [4]), the “Percentage of cell viability MCF-7” value is 87%.
